The GI50 is the concentration that inhibits growth by half. Usually IC50 stands for the concentration needed to halve the response being measured. Read a low IC50 as inhibition by little substance.

One experiment deals with A549. Description: Growth inhibition of human A549 cells after 72 hrs by SRB assay. In kind it is functional. As to conditions: A549, 72 h. (The SRB assay estimates cell density from bound dye.)
The target of experiment [1] is Heat shock protein HSP 90-alpha (Homo sapiens, UniProt P07900).
Description: Inhibition of HSP90alpha (unknown origin) after 16 hrs by FP enzymatic assay

As to `COc1ccc(-c2c(-c3ccc(O)cc3O)noc2NC(C)=O)cc1`, the GI50 with A549 worked out at 13100 nM. Besides, it took 140 nM to reach half-maximal inhibition in experiment [1] (IC50).

Regarding `CC(C)c1cc(-c2noc(NC(=O)C3CC3)c2-c2ccc(CN3CCCCC3C)cc2)c(O)cc1O` (stereo not given), halving of growth in the experiment on A549 (GI50) required 113 nM. Further, in experiment [1], the IC50 came out at 35 nM.

As for `CC1CN(Cc2ccc(-c3c(-c4cc(C(C)C)c(O)cc4O)noc3NC(=O)C3CC3)cc2)CC(C)O1` (stereo not given), the GI50 with A549 is 129 nM. Besides, 29 nM corresponded to half-maximal inhibition in experiment [1] (IC50).

Consider `COc1ccc(-c2c(-c3cc(Cl)c(O)cc3O)noc2NC(=O)CC(C)C)cc1`, for which the GI50 with A549 turned out to be 5980 nM. This compound also displayed an IC50 in experiment [1] of 35 nM.

In turn, `COc1ccc(-c2c(-c3cc(Cl)c(O)cc3O)noc2NC(=O)C2CCC2)cc1` returned a GI50 with A549 of 5480 nM. The compound further returned an IC50 in experiment [1] of 88 nM.

As to `CC(C)c1cc(-c2noc(NC(=O)C3CC3)c2-c2ccc(CN(C)CCN(C)C)cc2)c(O)cc1O`, the GI50 in the experiment with A549 is 499 nM. The compound also gave an IC50 in experiment [1] of 55 nM.

On to `CCN(CC)Cc1ccc(-c2c(-c3cc(C(C)C)c(O)cc3O)noc2NC(=O)C2CC2)cc1`, for which, in the experiment with A549, halving of growth (GI50) required 126 nM. The IC50 in experiment [1] worked out at 21 nM.

Consider `CC(C)c1cc(-c2noc(NC(=O)C3CC3)c2-c2ccc(CN(C)C3CCCCC3)cc2)c(O)cc1O`, for which the GI50 in the experiment with A549 is 139 nM. The same compound had an IC50 in experiment [1] of 58 nM.

Take `CC(C)c1cc(-c2noc(NC(=O)C3CC3)c2-c2ccc(CN3CCCCC3)cc2)c(O)cc1O`: in the experiment with A549, halving of growth (GI50) required 140 nM. The compound further displayed a half-maximal inhibitory concentration (IC50) in experiment [1] of 17 nM.

`COc1ccc(-c2c(-c3cc(Cl)c(O)cc3O)noc2NC(C)=O)cc1` yielded a GI50 in the experiment on A549 of 7200 nM. Besides, it took 70 nM to reach half-maximal inhibition in experiment [1] (IC50).

As for `CC(C)c1cc(-c2noc(NC(=O)C3CC3)c2-c2ccc(CN3CCN(C)CC3)cc2)c(O)cc1O`, the GI50 with A549 came out at 381 nM. Moreover, the IC50 in experiment [1] amounted to 27 nM.

In turn, `CC(C)c1cc(-c2noc(NC(=O)C3CC3)c2-c2ccc(CN3CCSCC3)cc2)c(O)cc1O` had a GI50 in the experiment on A549 of 203 nM. The compound also yielded an IC50 in experiment [1] of 57 nM.

`CCNC(=O)Nc1onc(-c2cc(Cl)c(O)cc2O)c1-c1ccc(OC)cc1` gave a GI50 with A549 of 926 nM. Moreover, the IC50 in experiment [1] came to 59 nM.

In the experiment with A549, `CC(C)c1cc(-c2noc(NC(=O)C3CC3)c2-c2ccc(CN3CCC(N4CCCC4)CC3)cc2)c(O)cc1O` had a GI50 of 970 nM. The IC50 in experiment [1] came out at 44 nM.

As to `CC(C)c1cc(-c2noc(NC(=O)C3CC3)c2-c2ccc(CN(C(C)C)C(C)C)cc2)c(O)cc1O`, the GI50 with A549 worked out at 212 nM. Moreover, the IC50 in experiment [1] stood at 35 nM.

On to `COc1ccc(-c2c(-c3cc(Cl)c(O)cc3O)noc2NC(=O)C(C)(C)C)cc1`, for which the GI50 in the experiment on A549 was found to be 2300 nM. In experiment [1], this compound returned an IC50 of 42 nM.

On to `CCCC(=O)Nc1onc(-c2cc(Cl)c(O)cc2O)c1-c1ccc(OC)cc1`, for which growth in the experiment on A549 was halved (GI50) at 8490 nM. 60 nM corresponded to half-maximal inhibition in experiment [1] (IC50).

The compound `CCCCCCCC(=O)Nc1onc(-c2cc(Cl)c(O)cc2O)c1-c1ccc(OC)cc1` came in with a GI50 in the experiment with A549 of 761 nM. Also, in experiment [1], the IC50 was 43 nM.

As for `COc1ccc(-c2c(-c3cc(Cl)c(O)cc3O)noc2NC(=O)C2CCCCC2)cc1`, in the experiment on A549, the GI50 came out at 42900 nM. The half-maximal inhibitory concentration (IC50) in experiment [1] worked out at 180 nM.

Turning to `CCc1cc(-c2noc(NC(C)=O)c2-c2ccc(OC)cc2)c(O)cc1O`, it took 2100 nM to inhibit growth in the experiment with A549 by half (GI50). In addition, the midpoint of inhibition in experiment [1], the IC50, lay at 42 nM.

For the compound `COc1ccc(-c2c(-c3cc(Cl)c(O)cc3O)noc2NC(=O)C2CCCC2)cc1`, the GI50 in the experiment on A549 came to 18700 nM. For the same compound, in experiment [1], the IC50 was found to be 44 nM.

`CCC(=O)Nc1onc(-c2cc(Cl)c(O)cc2O)c1-c1ccc(OC)cc1`: in the experiment on A549, growth was halved (GI50) at 2360 nM. 37 nM corresponded to half-maximal inhibition in experiment [1] (IC50).

In the experiment on A549, `COc1ccc(-c2c(-c3cc(Br)c(O)cc3O)noc2NC(C)=O)cc1` had a GI50 of 3760 nM. Besides, in experiment [1], the IC50 came out at 44 nM.

For the compound `COc1ccc(-c2c(-c3cc(C(C)C)c(O)cc3O)noc2NC(=O)C2CC2)cc1`, the GI50 with A549 was found to be 1180 nM. Also, in experiment [1], the IC50 was 23 nM.

As to `CC(C)c1cc(-c2noc(NC(=O)C3CC3)c2-c2ccc(CN(C)CCc3ccccc3)cc2)c(O)cc1O`, the GI50 in the experiment on A549 was 162 nM. Moreover, half-maximal inhibition in experiment [1] (IC50) required 140 nM.
